Two compounds from ChEMBL document CHEMBL1143950, “Antifungal and cytotoxic activities of some N-substituted aniline derivatives bearing a hetaryl fragment” (Bioorg Med Chem, 2008) can be followed below.

A word on the MIC: it is the least concentration at which growth counts as inhibited. The low end stands for greater potency, the high end for weaker potency. Usually IC50 stands for the midpoint of a concentration-inhibition curve.

Values after ≈ are worked out from the molar mass of the structure shown.

Test [1] relates to Cryptococcus neoformans. Nature of the test: Antifungal activity against Cryptococcus neoformans IM 031631 by micro-broth dilution method. It is filed as functional. On the technique in general: In broth dilution the organism is exposed to a series of concentrations in liquid medium.
Test [2] deals with Cryptococcus neoformans. Nature of the test: Antifungal activity against Cryptococcus neoformans IM 031706 by micro-broth dilution method. The test is classed as functional.
Test [3] deals with Cryptococcus neoformans. Description: Antifungal activity against Cryptococcus neoformans IM 972751 by microbroth dilution method. The test is classed as functional.
The test system of test [4] is Cryptococcus neoformans. Nature of the test: Antifungal activity against Cryptococcus neoformans IM 983036 by micro-broth dilution method. The test is classed as functional.
In the next test the test system is Aspergillus flavus. Nature of the test: Antifungal activity against Aspergillus flavus ATCC 9170 by micro-broth dilution method. The test is classed as functional.
The subject of a further test is Trichophyton rubrum. Nature of the test: Antifungal activity against Trichophyton rubrum C113 by microbroth dilution method. It is filed as functional.
Test [5] relates to Cryptococcus neoformans. Nature of the test: Antifungal activity against Cryptococcus neoformans ATCC 32264 by microbroth dilution method. The test is classed as functional.
In a further test the test system is Candida albicans. Description: Antifungal activity against Candida albicans ATCC 10231 by micro-broth dilution method. The test is classed as functional.
The subject of test [6] is Cryptococcus neoformans. Nature of the test: Antifungal activity against Cryptococcus neoformans IM 983040 by micro-broth dilution method. The test is classed as functional.
The test system of test [7] is Cryptococcus neoformans. Nature of the test: Antifungal activity against Cryptococcus neoformans IM 972724 by micro-broth dilution method. The test is classed as functional.
The test system of a further test is Saccharomyces cerevisiae. Description: Antifungal activity against Saccharomyces cerevisiae ATCC 9763 by microbroth dilution method. The test is classed as functional.
A further test concerns Nannizzia gypsea. Nature of the test: Antifungal activity against Microsporum gypseum C115 by microbroth dilution method. The test is classed as functional.
Test [8] relates to Cryptococcus neoformans. Description: Antifungal activity against Cryptococcus neoformans IM 042074 by micro-broth dilution method. It is filed as functional.
The subject of test [9] is Cryptococcus neoformans. Description: Antifungal activity against Cryptococcus neoformans IM 00319 by microbroth dilution method. The test is classed as functional.
The test system of test [10] is Cryptococcus neoformans. Nature of the test: Antifungal activity against Cryptococcus neoformans IM 961951 by micro-broth dilution method. The test is classed as functional.
The next test deals with NCI-H460. Description: Cytotoxicity against human H460 cells by SRB assay. The test is classed as functional, cell-based. (In general: In SRB staining, fixed cells bind dye roughly in proportion to their protein.)
In a further test the test system is MCF7. Nature of the test: Cytotoxicity against human MCF7 cells by SRB assay. It is filed as functional, cell-based.
The subject of a further test is Aspergillus fumigatus. Description: Antifungal activity against Aspergillus fumigatus ATCC 26934 by micro-broth dilution method. It is filed as functional.
For the next test, the system named is Aspergillus niger. Nature of the test: Antifungal activity against Aspergillus niger ATCC 9029 by micro-broth dilution method. The test is classed as functional.
For a further test, the system named is Candida tropicalis. Nature of the test: Antifungal activity against Candida tropicalis C131 by micro-broth dilution method. It is filed as functional.
The subject of test [11] is Trichophyton mentagrophytes. Nature of the test: Antifungal activity against Trichophyton mentagrophytes ATCC 9972 by micro-broth dilution method. The test is classed as functional.
Another test relates to SF-268. Nature of the test: Cytotoxicity against human SF268 cells by SRB assay. The test is classed as functional, cell-based.

As for `Ic1ccc(NCc2ccncc2)cc1`, the minimum inhibitory concentration (MIC) is 50 µg/mL (≈ 161 µM) against Cryptococcus neoformans [1]; 100 µg/mL (≈ 322 µM) in the test on Cryptococcus neoformans [2]; 50 µg/mL (≈ 161 µM) in the test on Cryptococcus neoformans [3]; 50 µg/mL (≈ 161 µM) against Cryptococcus neoformans [4]; 100 µg/mL (≈ 322 µM) in the test on Aspergillus flavus; 6.25 µg/mL (≈ 20.2 µM) in the test with Trichophyton rubrum. Also, the minimal inhibitory concentration (MIC) came to 25 µg/mL (≈ 80.6 µM) with Cryptococcus neoformans [5]; 50 µg/mL (≈ 161 µM) in the test on Candida albicans; 100 µg/mL (≈ 322 µM) in the test with Cryptococcus neoformans [6]; 25 µg/mL (≈ 80.6 µM) against Cryptococcus neoformans [7]; 50 µg/mL (≈ 161 µM) against Saccharomyces cerevisiae; 12.5 µg/mL (≈ 40.3 µM) in the test with Nannizzia gypsea. The MIC stood at 50 µg/mL (≈ 161 µM) in the test on Cryptococcus neoformans [8]; 50 µg/mL (≈ 161 µM) against Cryptococcus neoformans [9]; 100 µg/mL (≈ 322 µM) against Cryptococcus neoformans [10]; 50 µg/mL (≈ 161 µM) with Aspergillus fumigatus; 50 µg/mL (≈ 161 µM) against Aspergillus niger; 50 µg/mL (≈ 161 µM) against Candida tropicalis. For the same compound, the MIC in test [11] stood at 12.5 µg/mL (≈ 40.3 µM). Also, the IC50 with NCI-H460, with MCF7 and in the test on SF-268 was more than 10 µg/mL in each case.
With `Clc1ccc(NCc2ccco2)cc1Cl`, the MIC against Cryptococcus neoformans [1] turned out to be 100 µg/mL (≈ 413 µM); in the test on Cryptococcus neoformans [2], 100 µg/mL (≈ 413 µM); against Cryptococcus neoformans [3], 100 µg/mL (≈ 413 µM); in the test on Cryptococcus neoformans [4], 25 µg/mL (≈ 103 µM); against Aspergillus flavus, 50 µg/mL (≈ 207 µM); in the test on Trichophyton rubrum it was 3.12 µg/mL (≈ 12.9 µM). The MIC is 25 µg/mL (≈ 103 µM) in the test on Cryptococcus neoformans [5]; 62.5 µg/mL (≈ 258 µM) against Candida albicans; 100 µg/mL (≈ 413 µM) in the test on Cryptococcus neoformans [6]; 25 µg/mL (≈ 103 µM) in the test with Cryptococcus neoformans [7]; 50 µg/mL (≈ 207 µM) in the test with Saccharomyces cerevisiae; 6.25 µg/mL (≈ 25.8 µM) with Nannizzia gypsea. In addition, the MIC is 25 µg/mL (≈ 103 µM) in the test with Cryptococcus neoformans [8]; 100 µg/mL (≈ 413 µM) against Cryptococcus neoformans [9]; 100 µg/mL (≈ 413 µM) in the test on Cryptococcus neoformans [10]; 50 µg/mL (≈ 207 µM) against Aspergillus fumigatus; 62.5 µg/mL (≈ 258 µM) in the test on Aspergillus niger; 62.5 µg/mL (≈ 258 µM) against Candida tropicalis. This compound also came in with an MIC in [11] of 12.5 µg/mL (≈ 51.6 µM). For the same compound, the half-maximal inhibitory concentration (IC50) amounted to 8.7 µg/mL (≈ 35.9 µM) in the test with NCI-H460, 8 µg/mL (≈ 33 µM) in the test on MCF7 and 8.2 µg/mL (≈ 33.9 µM) with SF-268.
